Data published in patent US6833456B2, “Indolyl-urea derivatives of thienopyridines useful as antiangiogenic agents, and methods for their use” (Agouron Pharmaceuticals, Inc., priority 2002, dated 2004).
Values joined by “and” are separate entries in the source; they are usually repeats but may differ in a detail not shown here. Equal values may be shown once.

What was measured:
[1] = target: T1, unphosphorylated VEGF-R2Δ50 (FLVK) (Homo sapiens, UniProt P35968, DEL940-989/E990V); assay: VEGF-R2 coupled spectrophotometric assay, unphosphorylated construct (FLVK); assay type: biochemical; details: for inhibition at 0.05 µM: percent inhibition at 50 nM
T1 construct: VEGF-R2Δ50 contains residues 806-939 and 990-1171; made in house; host or cells: baculovirus/insect cell system
T1 sequence (P35968 with tags, fused parts or gaps DEL940-989/E990V limits assumed): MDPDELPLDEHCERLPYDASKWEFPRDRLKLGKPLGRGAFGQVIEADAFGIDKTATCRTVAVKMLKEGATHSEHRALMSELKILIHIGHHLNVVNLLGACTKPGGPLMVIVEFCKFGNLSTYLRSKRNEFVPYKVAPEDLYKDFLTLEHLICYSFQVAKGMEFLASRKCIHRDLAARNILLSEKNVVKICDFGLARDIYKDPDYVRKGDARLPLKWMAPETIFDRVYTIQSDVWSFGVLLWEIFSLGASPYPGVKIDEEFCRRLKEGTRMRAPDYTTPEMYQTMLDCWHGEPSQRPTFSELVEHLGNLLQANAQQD
Summary of the method: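 Continuous coupled assay (PEP, PK, LDH; NADH loss at 340 nm) in 200 mM HEPES pH 7.5 with 3 mM ATP, 20 mM poly(E4Y1), 60 mM MgCl2 plus 2 mM MnCl2, started with 5-40 nM non-autophosphorylated VEGF-R2Δ50. Ki values from activity across compound concentrations, Morrison fit.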

KDR (VEGFR2) = target: T2, KDR (VEGFR2) (Homo sapiens, UniProt P35968); assay: KDR (VEGFR2) phosphorylation in PAE-KDR cells assay; assay type: cell-based; details: PAE cells overexpressing human KDR, VEGF stimulated; read-out: PAE KDR autophos IC50
T2 construct: expressed in transfected cells; host or cells: porcine aorta endothelial (PAE) cells
T2 sequence (P35968 20-1356): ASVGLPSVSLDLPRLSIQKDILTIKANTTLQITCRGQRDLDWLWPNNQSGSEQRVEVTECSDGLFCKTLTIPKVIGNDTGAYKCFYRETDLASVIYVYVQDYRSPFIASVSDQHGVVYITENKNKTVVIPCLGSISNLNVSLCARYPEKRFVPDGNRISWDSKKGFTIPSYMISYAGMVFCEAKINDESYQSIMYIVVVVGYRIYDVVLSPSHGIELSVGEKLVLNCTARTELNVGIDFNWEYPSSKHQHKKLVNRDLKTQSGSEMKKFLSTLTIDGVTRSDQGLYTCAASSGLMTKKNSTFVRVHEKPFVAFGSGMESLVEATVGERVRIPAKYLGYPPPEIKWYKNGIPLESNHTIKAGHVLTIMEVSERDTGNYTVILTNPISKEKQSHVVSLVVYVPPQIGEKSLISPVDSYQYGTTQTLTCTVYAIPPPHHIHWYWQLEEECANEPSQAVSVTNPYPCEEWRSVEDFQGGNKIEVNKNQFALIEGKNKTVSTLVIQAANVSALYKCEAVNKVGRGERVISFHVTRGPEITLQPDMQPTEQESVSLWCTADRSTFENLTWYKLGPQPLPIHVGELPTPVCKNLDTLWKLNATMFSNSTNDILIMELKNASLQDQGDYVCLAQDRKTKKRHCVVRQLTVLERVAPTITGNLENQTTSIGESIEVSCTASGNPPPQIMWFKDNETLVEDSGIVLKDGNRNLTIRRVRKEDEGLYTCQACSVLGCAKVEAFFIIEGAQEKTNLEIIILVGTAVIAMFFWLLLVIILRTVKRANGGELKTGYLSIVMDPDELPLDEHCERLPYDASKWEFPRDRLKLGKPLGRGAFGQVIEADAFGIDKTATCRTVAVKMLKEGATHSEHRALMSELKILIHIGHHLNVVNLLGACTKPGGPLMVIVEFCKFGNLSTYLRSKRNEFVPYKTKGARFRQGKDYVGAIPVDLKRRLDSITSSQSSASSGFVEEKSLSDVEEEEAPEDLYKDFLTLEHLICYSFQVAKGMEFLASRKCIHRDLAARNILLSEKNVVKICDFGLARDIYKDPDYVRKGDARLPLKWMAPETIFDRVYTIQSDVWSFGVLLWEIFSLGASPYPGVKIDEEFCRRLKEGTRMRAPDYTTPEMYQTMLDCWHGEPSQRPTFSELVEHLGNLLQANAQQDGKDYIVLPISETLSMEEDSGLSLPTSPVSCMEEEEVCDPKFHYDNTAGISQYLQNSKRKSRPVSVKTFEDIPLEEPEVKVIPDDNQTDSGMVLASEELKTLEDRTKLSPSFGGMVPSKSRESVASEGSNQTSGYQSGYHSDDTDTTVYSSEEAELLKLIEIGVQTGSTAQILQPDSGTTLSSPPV
Summary of the method: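 PAE cells overexpressing human KDR, serum-starved 16 h (0.1% FBS), treated with compound 1 h at 37° C (0.5% DMSO), then stimulated 8 min with 500 ng/ml VEGF plus 2 mM Na3VO4. Lysate KDR phosphotyrosine measured by capture ELISA (anti-pY HRP, 450 nm); IC50 by four-parameter fit.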

HUVEC = assay: bFGF HUVEC proliferation; assay type: cell-based, human; details: bFGF stimulated HUVEC

Compound	Ki [1] [nM]	inhibition at 0.05 µM [1] [%]	IC50 (KDR (VEGFR2))	IC50 (HUVEC; Homo sapiens, HUVEC) [nM]	IC50 (HUVEC) [nM]
CNC(=O)n1c(C)cc2cc(Nc3ccnc4cc(C(=O)N5CCC[C@@H]5CO)sc34)ccc21 [Example 1a, 5-[2-(2R-Hydroxymethyl-pyrrolidine-1-carbonyl)-thieno[3,2-b]pyridin-7-ylamino]-2-methyl-indole-1-carboxylic acid methylamide]	0.69	90	1.06 nM	59	
CNC(=O)n1c(C)cc2cc(Nc3ccnc4cc(C(=O)N5CCC[C@@H]5COC)sc34)ccc21 [Example 1b, 5-[2-(2R-Methoxymethyl-pyrrolidine-1-carbonyl)-thieno[3,2-b]pyridin-7-ylamino]-2-methyl-indole-1-carboxylic acid methylamide]	0.96	88	0.28 nM and 0.25 nM	80	
Cc1cc2cc(Nc3ccnc4cc(C(=O)N5CCC[C@@H]5CO)sc34)ccc2n1C(=O)NC1CC1 [Example 1c, 5-[2-(2R-Hydroxymethyl-pyrrolidine-1-carbonyl)-thieno[3,2-b]pyridin-7-ylamino]-2-methyl-indole-1-carboxylic acid cyclopropylamide]	0.67	98		158	
COC[C@H]1CCCN1C(=O)c1cc2nccc(Nc3ccc4c(c3)cc(C)n4C(=O)NC3CC3)c2s1 [Example 1d, 5-[2-(2R-Methoxymethyl-pyrrolidine-1-carbonyl)-thieno[3,2-b]pyridin-7-ylamino]-2-methyl-indole-1-carboxylic acid cyclopropylamide]	1.1	97	0.45 nM and 0.51 nM	24	23.4
CNC(=O)n1c(C)cc2cc(Nc3ccnc4cc(C(=O)N5CC[C@@H](OC)C5)sc34)ccc21 [Example 1l, 5-[2-(3R-Methoxy-pyrrolidine-1-carbonyl)-thieno[3,2-b]pyridin-7-ylamino]-2-methyl-indole-1-carboxylic acid methylamide]		94		6.1	
CNC(=O)n1c(C)cc2cc(Nc3ccnc4cc(C(=O)N5CCC[C@H]5COC)sc34)ccc21 [Example 1t, 5-(2-[(S)-2-(methoxymethyl)pyrrolidine-1-carbonyl]thieno[3,2-b]pyridin-7-ylamino)-2-methylindole-1-carboxylic acid methylamide]	1.13	87	0.67 nM and 0.35 nM and 0.41 nM		
CNC(=O)n1c(C)cc2cc(Nc3ccnc4cc(-c5nccn5C)sc34)ccc21 [Example 2a, 5-(2-[1-methyl-1H-imidazol-2-yl]thieno[3,2-b]pyridin-7-ylamino)-2-methylindole-1-carboxylic acid methylamide]	2.1	84	0.36 nM and 0.28 nM and 0.32 nM		
CNC(=O)n1c(C)cc2cc(Nc3ccnc4cc(C(=O)N5CCC[C@H]5CO)sc34)ccc21 [Example 2b, 5-(2-[(S)-2-(hydroxymethyl)pyrrolidine-1-carbonyl]thieno[3,2-b]pyridin-7-ylamino)-2-methylindole-1-carboxylic acid methylamide]	1.03	85	1.42 nM and 1.43 nM and 1.27 nM		
Cc1cc2cc(Nc3ccnc4cc(-c5nccn5C)sc34)ccc2n1C(=O)NC1CC1 [Example 2d, 5-(2-[1-methyl-1H-imidazol-2-yl]thieno[3,2-b]pyridin-7-ylamino)-2-methylindole-1-carboxylic acid cyclopropylamide]	0.32	98		34	
CNC(=O)n1c(C)cc2cc(Nc3ccnc4cc(-c5nc(C(C)(C)O)cs5)sc34)ccc21 [Example 3a, 5-{2-[4-(1-Hydroxy-1-methyl-ethyl)-thiazol-2-yl]-thieno[3,2-b]pyridin-7-ylamino}-2-methyl-indole-1-carboxylic acid methylamide]	0.45	91	0.72 nM and 0.33 nM and 0.35 nM		
Cc1cc2cc(Nc3ccnc4cc(-c5nc(C(C)(C)O)cs5)sc34)ccc2n1C(=O)NC1CC1 [Example 3b, 5-{2-[4-(1-Hydroxy-1-methyl-ethyl)-thiazol-2-yl]-thieno[3,2-b]pyridin-7-ylamino}-2-methyl-indole-1-carboxylic acid cyclopropylamide]	0.21	95	0.32 nM and 0.444 nM		
CNC(=O)n1c(C)cc2cc(Oc3ccnc4cc(C(=O)N5CCC[C@H]5COC)sc34)ccc21 [Example 4a, 5-(2-[(S)-2-(methoxymethyl)pyrrolidine-1-carbonyl]thieno[3,2-b]pyridin-7-yloxy)-2-methylindole-1-carboxylic acid methylamide]	1.1	96		33	34
C#CCNC(=O)n1c(C)cc2cc(Oc3ccnc4cc(C(=O)N5CCC[C@H]5COC)sc34)ccc21 [Example 4c, 5-(2-[(S)-2-(methoxymethyl)pyrrolidine-1-carbonyl]thieno[3,2-b]pyridin-7-yloxy)-2-methylindole-1-carboxylic acid prop-2-ynylamide]	0.1	96	0.28 nM and 0.24 nM and 0.36 nM		
COC[C@@H]1CCCN1C(=O)c1cc2nccc(Oc3ccc4c(c3)cc(C)n4C(=O)NCC#CCO)c2s1 [Example 4d, 5-(2-[(S)-2-(methoxymethyl)pyrrolidine-1-carbonyl]thieno[3,2-b]pyridin-7-yloxy)-2-methylindole-1-carboxylic acid (4-hydroxybut-2-ynyl)amide]	0.41	91	0.37 nM and 0.26 nM and 0.55 nM		
CNC(=O)n1c(C)cc2cc(Oc3ccnc4cc(C(=O)N5CCC[C@@H]5COC)sc34)ccc21 [Example 4e, 5-[2-(2R-Methoxymethyl-pyrrolidine-1-carbonyl)-thieno[3,2-b]pyridin-7-yloxy]-2-methyl-indole-1-carboxylic acid methylamide]	0.14	96		14	
C#CCNC(=O)n1c(C)cc2cc(Oc3ccnc4cc(C(=O)N5CC[C@H](OC)C5)sc34)ccc21 [Example 4f, 5-[2-(3S-Methoxy-pyrrolidine-1-carbonyl)-thieno[3,2-b]pyridin-7-yloxy]-2-methyl-indole-1-carboxylic acid prop-2-ynylamide]	0.85	95	0.149 nM		
CNC(=O)n1c(C)cc2cc(Oc3ccnc4cc(C(=O)N5CC[C@H](OC)C5)sc34)ccc21 [Example 4g, 5-[2-(3S-Methoxy-pyrrolidine-1-carbonyl)-thieno[3,2-b]pyridin-7-yloxy]-2-methyl-indole-1-carboxylic acid methylamide]	0.23	97	0.58 nM and 0.98 nM		
CO[C@H]1CCN(C(=O)c2cc3nccc(Oc4ccc5c(c4)cc(C)n5C(=O)NC4CC4)c3s2)C1 [Example 4h, 5-[2-(3S-Methoxy-pyrrolidine-1-carbonyl)-thieno[3,2-b]pyridin-7-yloxy]-2-methyl-indole-1-carboxylic acid cyclopropylamide]	1.6	91	0.116 nM and 0.34 nM and 0.21 nM		
C#CCNC(=O)n1c(C)cc2cc(Oc3ccnc4cc(C(=O)N5CC[C@@H](OC)C5)sc34)ccc21 [Example 4l, 5-[2-(3R-Methoxy-pyrrolidine-1-carbonyl)-thieno[3,2-b]pyridin-7-yloxy]-2-methyl-indole-1-carboxylic acid prop-2-ynylamide]	0.19	96	0.09 nM		
CNC(=O)n1c(C)cc2cc(Oc3ccnc4cc(C(=O)N5CC[C@@H](O)C5)sc34)ccc21 [Example 4n, 5-[2-(3R-Hydroxy-pyrrolidine-1-carbonyl)-thieno[3,2-b]pyridin-7-yloxy]-2-methyl-indole-1-carboxylic acid methylamide]	0.62	99	0.35 nM and 0.16 nM and 0.167 nM		
Cc1cc2cc(Oc3ccnc4cc(C(=O)N5CC[C@@H](O)C5)sc34)ccc2n1C(=O)NC1CC1 [Example 4p, 5-[2-(3R-Hydroxy-pyrrolidine-1-carbonyl)-thieno[3,2-b]pyridin-7-yloxy]-2-methyl-indole-1-carboxylic acid cyclopropylamide]	0.25	98	0.22 nM		
C#CCNC(=O)n1c(C)cc2c(F)c(Oc3ccnc4cc(C(=O)N5CCC[C@H]5CO)sc34)ccc21 [Example 5e, 4-Fluoro-5-[2-(2S-hydroxymethyl-pyrrolidine-1-carbonyl)-thieno[3,2-b]pyridin-7-yloxy]-2-methyl-indole-1-carboxylic acid prop-2-ynylamide]	0.431	100	0.256 nM and 0.52 nM and 0.237 nM		
C#CCNC(=O)n1c(C)c(Cl)c2c(F)c(Oc3ccnc4cc(C(=O)N5CC[C@H](O)C5)sc34)ccc21 [Example 6d, 3-Chloro-4-fluoro-5-[2-(3S-hydroxy-pyrrolidine-1-carbonyl)-thieno[3,2-b]pyridin-7-yloxy]-2-methyl-indole-1-carboxylic acid prop-2-ynylamide]	0.32	99	0.123 nM and 0.31 nM		
Cc1cc2cc(Oc3ccnc4cc(C(=O)N5CC[C@H](O)C5)sc34)ccc2n1C(=O)NCCO [Example 9k, 5-[2-(3S-Hydroxy-pyrrolidine-1-carbonyl)-thieno[3,2-b]pyridin-7-yloxy]-2-methyl-indole-1-carboxylic acid (2-hydroxy-ethyl)-amide]	0.932	90	1 nM		
